The text below walks through data of US6887876B2, “Benzamidine derivatives” (Ortho-McNeil Pharmaceutical, Inc., priority 2000, dated 2005).

Where only a bound is given, the exact number is not on record here.

As usually defined, the inhibition is the change of the read-out against control, counted positive when it falls. For orientation: Ki means a dissociation constant, usually derived from enzyme kinetics or from competition with a known ligand. Higher therefore signals a looser hold on the target. A word on the inhibition in vivo: it is how much of the control response was suppressed. Read a low inhibition in vivo as little suppression.

For experiment [1], the target named is T1, δ-opioid receptor (Homo sapiens, UniProt P41143).
T1 construct: purchased Receptor Biology, Baltimore, Md; host or cells: CHO cells (membranes)
The experiment in a line: Scintillation screening assay for δ-opioid receptor binding ([3H]bremazocine). The settings on record: cloned human receptor in CHO cell membranes, [3H]bremazocine 2.4 nM, read-out: δ-Opioid Receptor Binding (% Inhibition), % I @ 25 μM. The source says:
Scintillation Screening Assay for δ-Opioid Receptor Binding
This is a receptor based screen to detect the competitive binding of test compounds at the δ-opioid receptor against the radioligand, [^3H]bremazocine (S.A.=25.5 Cl/mmol, Dupont/NEN, Cambridge, Mass.). Unknown compounds that bind to the same receptor as the radioligand will compete for the receptor and reduce the amount of radioligand which binds to the receptor. This is detected as a decreased scintillation signal from that particular incubation. The greater affinity an unknown has for the receptor, the larger the observed decrease in […] to the receptor; thus the assay is in the format of an inhibition study.
The receptor is a cloned human cDNA expressed in mammalian CHO cells. Membranes prepared from these cells are purchased from Receptor Biology, Baltimore, Md. The reaction buffer is composed as follows: HEPES (50 mM final), MgCl.6H2O (5 mM final), o-phenanthroline (20 mg/l), aprotinin (10 mg/l), Pefabloc SC (250 mg/l), leupeptin (0.5 mg/l), pepstatin A (0.7 mg/l), trypsin inhibitor (25 mg/l), chymostatin (10 mg/l), pH=7.2. Naloxone, 10 uM, is used to define non-specific binding. The assay employs filtration to capture receptor and bound ligand.
The receptor (membrane) preparation (28 ug protein) is allowed to incubate with the opioid receptor radioligand ([^3H]bremazocine, 2.4 nM) in 96-well plates until equilibrium is reached (>2 hr). Following incubation with the radioligand at 23° C., the well contents are filtered onto 96-well Whatman GF/C filter plates using a Packard cell harvester. Radioligand bound to the receptor also remains on the filter. The filters are rinsed three times with 0.5 mL of physiological saline (0.9% NaCl) to remove any unbound radioligand from the filter. Filters are dried and scintillation fluid is then added to the filters which emits light in proportion to the amount of radioactivity on the filter which is determined using an Packard Topcount scintillation counter. Data are reported as percent inhibition of control binding.

The target of experiment [2] is δ-opioid receptor (Rattus norvegicus, UniProt P33533). The experiment in a line: Rat brain δ-opioid receptor binding assay ([3H]DPDPE).
In a further experiment the target is μ-opioid receptor (Rattus norvegicus, UniProt P33535). Put plainly: Rat brain μ-opioid receptor binding assay ([3H]DAMGO).
For experiment [3], the system named is acetylcholine bromide-induced abdominal constriction response. Put plainly: Mouse acetylcholine bromide-induced abdominal constriction assay (MAIT). The experiment is classed as in vivo. Particulars: po, 0.5 h, 150 μmole/Kg p.o., acetylcholine bromide 5.5 mg/kg i.p. 30 min later. How it is done:
The mouse acetylcholine-induced abdominal constriction assay, as described by Collier et al. in […]., 32: 295-310, 1968 with minor modifications, was used to assess analgesic potency of the compounds of formula (I). The test drugs or appropriate vehicles were administered orally (p.o.) and 30 min later the animal received an intraperitoneal (i.p.) injection of 5.5 mg/kg acetylcholine bromide (Matheson, Coleman and Bell, East Rutherford, N.J.). The mice were then placed in groups of three into glass bell jars and observed for a ten min observation period for the occurrence of an abdominal constriction response (defined as a wave of constriction and elongation passing caudally along the abdominal wall, accompanied by a twisting of the trunk and followed by extension of the hind limbs). For compounds of the present invention, the percent inhibition of this response to a nociceptive stimulus (equated to % analgesia) was calculated as follows: [formula]

μ-opioid receptor, sequence (P33535 whole entry): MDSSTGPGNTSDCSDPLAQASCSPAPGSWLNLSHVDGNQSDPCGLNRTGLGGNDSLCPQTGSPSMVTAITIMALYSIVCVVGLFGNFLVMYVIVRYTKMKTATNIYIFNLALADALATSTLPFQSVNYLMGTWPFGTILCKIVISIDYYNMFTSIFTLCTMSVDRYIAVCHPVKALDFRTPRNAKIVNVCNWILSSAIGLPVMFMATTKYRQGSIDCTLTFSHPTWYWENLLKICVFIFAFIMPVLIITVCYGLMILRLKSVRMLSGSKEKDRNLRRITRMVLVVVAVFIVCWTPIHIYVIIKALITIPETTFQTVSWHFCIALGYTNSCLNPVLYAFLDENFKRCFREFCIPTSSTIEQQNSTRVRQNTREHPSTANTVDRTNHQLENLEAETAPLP
δ-opioid receptor (Rattus norvegicus, UniProt P33533), sequence (P33533 whole entry): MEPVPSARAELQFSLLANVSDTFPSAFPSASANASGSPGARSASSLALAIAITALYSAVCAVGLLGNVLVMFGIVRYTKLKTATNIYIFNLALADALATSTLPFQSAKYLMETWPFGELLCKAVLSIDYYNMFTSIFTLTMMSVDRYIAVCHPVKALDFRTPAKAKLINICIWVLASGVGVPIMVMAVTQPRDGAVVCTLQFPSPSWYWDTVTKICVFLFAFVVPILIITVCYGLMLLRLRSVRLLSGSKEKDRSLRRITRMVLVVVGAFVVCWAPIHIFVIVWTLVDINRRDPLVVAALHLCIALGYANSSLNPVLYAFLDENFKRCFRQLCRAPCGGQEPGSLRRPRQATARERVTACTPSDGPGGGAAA
T1 sequence (P41143 whole entry): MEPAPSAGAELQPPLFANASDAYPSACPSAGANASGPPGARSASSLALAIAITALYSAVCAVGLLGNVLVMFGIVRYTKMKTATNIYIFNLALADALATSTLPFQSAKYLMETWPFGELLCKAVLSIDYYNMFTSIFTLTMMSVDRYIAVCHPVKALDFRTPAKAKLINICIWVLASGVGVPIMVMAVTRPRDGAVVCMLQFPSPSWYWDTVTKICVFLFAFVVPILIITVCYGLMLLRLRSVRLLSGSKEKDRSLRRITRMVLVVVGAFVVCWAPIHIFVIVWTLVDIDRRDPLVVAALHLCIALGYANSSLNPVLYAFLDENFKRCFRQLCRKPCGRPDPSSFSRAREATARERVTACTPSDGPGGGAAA

Take `CCCN(CCC)C(=O)c1ccc(C(=Nc2cccc(Br)c2)N2CCN(CC)CC2)cc1` [Compound 5, 4-[[(3-bromophenyl)imino](4-ethyl-1-piperazinyl)methyl]-N,N-dipropyl-benzamide]: at δ-opioid receptor [1], the inhibition at 25 µM turned out to be 100%. Also, the Ki at δ-opioid receptor [2] was determined as 39.2 nM; at μ-opioid receptor, 5510 nM. This compound yielded an inhibition in vivo at 150 µmol/kg in experiment [3] of 14.3%.
The like results for `CCN1CCN(C(=Nc2cccc(Br)c2)c2ccc(C(=O)N(CC)CC)cc2)CC1` [Compound 4, 4-[[(3-bromophenyl)imino](4-ethyl-1-piperazinyl)methyl]-N,N-diethyl-benzamide] were, in that order, 100%, 57.6 nM, more than 10000 nM and 7.7%.
Taken in the same sequence, the figures for `CCN1CCN(C(=Nc2cccc(Cl)c2)c2ccc(C(=O)N(CC)CC)cc2)CC1` [Compound 3] were 103%, 62.6 nM, more than 10000 nM and 40%.
The like results for `CCN1CCN(C(=Nc2ccccc2F)c2ccc(C(=O)N(CC)CC)cc2)CC1` [Compound 10, N,N-diethyl-4-[(4-ethyl-1-piperazinyl)[(2-fluorophenyl)imino]methyl]-benzamide] were, in that order, 102%, 118 nM, more than 10000 nM and 26.7%.
